Source: PMC12350126, “A novel carboxamide bromodomain inhibitor attenuates osteoarthritis via epigenetic repression of NF-κB and MAPK signaling” (Frontiers in Immunology, 2025)
pKd: −log10 of the molar value.

Experiments:
liver, lungs of mice = experiment: In vivo organ histology after oral or IA administration
[1] = tested on: DMM-induced OA in C57BL/6J mice; experiment: DMM-induced OA mouse model, oral administration; format: in vivo
Procedure: (§1) All experiments were independently performed with at least three biological replicates to ensure reproducibility. For in vivo studies, animals were randomly assigned to treatment or control groups. To create a DMM-induced OA model, DMM surgery was performed on 12-week-old male C57BL/6J mice, following a previously reported protocol ([26]). Subsequently, NCD was either orally administered or injected in mice; the NCD (50 mg/kg) was orally administered on alternate days 4 weeks after DMM, whereas IA knee injection of NCD (10 μg) was administered once a week after 4 weeks. The mouse knee joint was processed for histological analysis 10 weeks after surgery. All experiments were independently performed with at least three biological replicates to ensure reproducibility. For in vivo studies, animals were randomly assigned to treatment or control groups. For in vitro experiments, cells were plated using a randomized layout across multi-well plates to avoid positional effects and ensure unbiased treatment assignment
(§2) All histological samples were prepared independently by two researchers. Cartilage destruction was evaluated based on Safranin O staining and scored using the OA Research Association International (OARSI) grading system ([29]). Additionally, all histological samples were analyzed through osteophyte maturity scoring and subchondral bone plate (SBP) thickness. Osteophyte maturity was scored as described previously ([30]). Briefly, the scoring was as follows: 0 = none, 1 = predominantly cartilaginous, 2 = mixed cartilage and bone with active vascular invasion and endochondral ossification, 3 = predominantly bone. SBP thickness was measured to analyze subchondral bone sclerosis. All experiments were independently performed over at least three replicates. […] For each sample, measurements were performed on serial sections, and the mean value was calculated for analysis. The samples were […] by treating with 0.5 M ethylenediamine tetraacetic acid (pH 8.0) for 2 weeks. Next, mouse knee joint samples were fixed using 4% paraformaldehyde and embedded in paraffin. The paraffin-embedded samples were cut into 5-μm sections and fixed on glass slides. The tissue sections were then hydrated using a graded ethanol series, which removed paraffin and xylene. Mouse knee joint sections were immunohistochemically analyzed using anti-Mmp3 (ab52915, Abcam, Cambridge, UK), anti-Mmp13 (ab51072, Abcam), and anti-Cox2 (66351-I-Ig, ProteinTech, Rosemont, ILllinois, USA).

BRD4 BD2 = biological target: T1, BRD4 BD2 (Homo sapiens, UniProt O60885); experiment: Biosensor binding kinetics assay (Octet), BRD4 BD2
T1 construct: BRD3 BD2, BRD4 BD1, BRD4 BD2; biotin (biotinylated protein); made in house; host or cells: Escherichia coli BL21(DE3)
Procedure: (§3) Binding kinetics were assessed using the Octet® R2 system (Sartorius, Göttingen, Germany). Superstreptavidin biosensors were loaded with biotinylated BRD2 BD1, BRD2 BD2, BRD3 BD1, BRD3 BD2, BRD4 BD1, BRD4 BD2, or biotin alone (as a negative control) in PBST buffer (phosphate-buffered saline containing 0.02% Tween 20 and 5% DMSO). The sensors were then dipped into compound solutions for 10 min. To evaluate association kinetics (kon), each sensor was exposed to serial dilutions of the protein for 180 s, followed by dipping them into PBST buffer to assess dissociation kinetics (koff). For control, a separate sensor loaded with the compound was dipped into PBST alone. Competition binding assays were performed by exposing the compound-loaded sensor to mixtures of proteins and test compounds.

BRD3 (BD1 + BD2) = biological target: T2, BRD3 (BD1 + BD2) (Homo sapiens, UniProt Q15059); experiment: TR-FRET assay, BRD3 (BD1 + BD2); conditions: lower signal = stronger binding
T2 construct: BRD3 (BD1 + BD2); purchased BPS Bioscience
Procedure: (§4) TR-FRET assays were conducted using kits specific for BRD2 (BD1 + BD2), BRD3 (BD1 + BD2), and BRD4 (BD1 + BD2) obtained from BPS Bioscience (San Diego, CA, USA). Bromodomain ligands were diluted in water, and master mixes were prepared by combining the diluted ligands with 1× BRD Homogeneous Assay Buffer. Thawed BRD proteins were also diluted with the same buffer. For each assay, 1.5 μL of the master mix was dispensed into wells of a microplate (Labcyte, San Jose, CA, USA), followed by the addition of 5 μL of diluted BRD protein to initiate the reaction. Plates were incubated at 20–22°C for 30–60 min. Subsequently, glutathione (GSH) acceptor beads and streptavidin-conjugated donor beads (both from PerkinElmer, Waltham, MA, USA) were diluted in 1× BRD Homogeneous Detection Buffer 1. Next, 10 μL of the acceptor bead solution was added to each well and incubated at 18°C for 30 min, followed by the addition of 10 μL of donor bead solution and a further incubation at 18°C for 15–30 min. Alpha particle counts were measured using an EnVision 2105 multimode plate reader (PerkinElmer).

[2] = tested on: DMM-induced OA in C57BL/6J mice; experiment: DMM-induced OA mouse model, intra-articular injection; format: in vivo
Procedure: as §1, §2

BRD3 BD1 = biological target: T3, BRD3 BD1 (Homo sapiens, UniProt Q15059); experiment: Biosensor binding kinetics assay (Octet), BRD3 BD1
T3 construct: biotinylated BRD2 BD1, BRD2 BD2, BRD3 BD1; biotin (biotinylated protein); made in house; host or cells: Escherichia coli BL21(DE3)
Procedure: as §3

BRD4 (BD1 + BD2) = biological target: T4, BRD4 (BD1 + BD2) (Homo sapiens, UniProt O60885); experiment: TR-FRET assay, BRD4 (BD1 + BD2); conditions: lower signal = stronger binding
T4 construct: BRD4 (BD1 + BD2); purchased BPS Bioscience
Procedure: as §4

BRD4 BD1 = biological target: T5, BRD4 BD1 (Homo sapiens, UniProt O60885); experiment: Biosensor binding kinetics assay (Octet), BRD4 BD1
T5 construct: BRD3 BD2, BRD4 BD1, BRD4 BD2; biotin (biotinylated protein); made in house; host or cells: Escherichia coli BL21(DE3)
Procedure: as §3

[3] = oral 50 mg/kg on alternate days from 4 weeks after DMM, 10 weeks after surgery, vs vehicle
[4] = IA injection 10 μg once a week from 4 weeks after DMM, 10 weeks after surgery, vs PBS

T2 sequence (Q15059 29-417 limits assumed): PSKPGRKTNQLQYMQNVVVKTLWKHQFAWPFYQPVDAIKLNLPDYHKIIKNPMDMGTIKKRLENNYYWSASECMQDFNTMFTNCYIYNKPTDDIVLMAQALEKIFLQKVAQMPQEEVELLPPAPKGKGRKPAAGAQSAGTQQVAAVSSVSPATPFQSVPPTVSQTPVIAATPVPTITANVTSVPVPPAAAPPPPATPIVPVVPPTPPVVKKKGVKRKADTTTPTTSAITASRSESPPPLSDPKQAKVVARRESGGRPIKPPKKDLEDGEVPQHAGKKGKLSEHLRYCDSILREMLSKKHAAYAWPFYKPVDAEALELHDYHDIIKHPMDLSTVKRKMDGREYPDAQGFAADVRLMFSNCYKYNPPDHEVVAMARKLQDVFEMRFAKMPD
T3 sequence (Q15059 34-140 limits assumed): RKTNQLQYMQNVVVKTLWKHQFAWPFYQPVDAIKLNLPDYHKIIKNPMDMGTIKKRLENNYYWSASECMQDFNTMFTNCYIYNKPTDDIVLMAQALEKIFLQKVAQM

With `CNC(=O)CC1C(=O)NCCN1Cc1ccc(-c2ccccc2-c2cccc3c2CN(C)C3=O)o1` (stereo not shown) [NCD, N-methyl-2-(1-((5-(2-(2-methyl-1-oxoisoindolin-4-yl)phenyl)furan-2-yl)methyl)-3-oxopiperazin-2-yl)acetamide] the “Cytotoxicity in the liver or lungs (histological analyses)” value (liver, lungs of mice; oral and intra-articular administration) was “no apparent cytotoxicity”, the “Organ toxicity in vivo” value (liver, lungs of mice; oral or IA routes) was “without causing detectable organ toxicity” and the OARSI score [1, 3] was “decrease”. For the same molecule, the Osteophyte maturity [1, 3] was “decrease”, the SBP thickness [1, 3] was “decrease” and the “Expression of Mmp3, Mmp13 and Cox2 in articular cartilage (immunohistochemistry)” value ([1]; oral 50 mg/kg, DMM mice) was “markedly reduced expression levels”. For the same molecule, the “NITEGE levels (aggrecan degradation neoepitope)” value ([1]; oral 50 mg/kg, DMM mice) was “significantly reduced”, the “Type II collagen (immunohistochemistry)” value ([1]; oral 50 mg/kg, DMM mice) was “restored” and the pKd (BRD4 BD2) was < 6.00. For the same molecule, the TR-FRET value (BRD3 (BD1 + BD2)) was > 100000 RLU, the OARSI grade [2, 4] was “significant reduction” and the Osteophyte maturity [2, 4] was “significant reduction”. The SBP thickness [2, 4] was “significant reduction”, the “Expression of Mmp3, Mmp13 and Cox2 in knees (immunohistochemistry)” value ([2]; IA injection 10 μg, DMM mice) was “lower expression levels” and the NITEGE expression ([2]; IA injection 10 μg, DMM mice) was “reduced”. For the same molecule, the “Type II collagen levels (immunohistochemistry)” value ([2]; IA injection 10 μg, DMM mice) was “partially preserved”, the pKd (BRD3 BD1) was < 6.00 and the TR-FRET value (BRD4 (BD1 + BD2)) was > 100000 RLU. The pKd (BRD4 BD1) was < 6.00.
